# Assay results reported in publication PMC9781444, “Pyridyl Methylsulfinyl Benzimidazole Derivatives as Promising Agents against Giardia lamblia and Trichomonas vaginalis” (Molecules, 2022).
# Read-outs that look alike come from different tables or passages of the source.
# Experiments:
# TvG6PD::6PGL [1] = target: T1, TvG6PD::6PGL (Trichomonas vaginalis, UniProt A2DBT5); details: cited from earlier work
# GlG6PD::6PGL [2] = target: T2, GlG6PD::6PGL (Giardia intestinalis, UniProt A8BWM5); assay: GlG6PD::6PGL enzyme inactivation assay; type: biochemical, G. lamblia; details: for Inhibition (%) at 400 µM of GlG6PD::6PGL: 400 µM compound, 0.2 mg/mL enzyme, 37 °C, 2 h, relative to enzyme without inhibitor; for inhibition at 400 µM: read-out: Inhibition (%) at 400 µM of GlG6PD::6PGL; for kinact/KI: read-out: second-order inactivation rate constant k2, GlG6PD::6PGL
# Description: (§1) The G6PD domain activity of the recombinant proteins was spectrophotometrically measured at 25 °C by monitoring the reduction in NADP^+ at 340 nm. The assay was performed with 1 mL of standard reaction mixture containing 0.1 M Tris-HCl, 0.01 M MgCl2, 1 mM NADP^+, and 1 mM glucose-6-phosphate (G6P) at pH 8.3. The reaction was initiated with the addition of 1 µg/mL fused GlG6PD::6PGL or TvG6PD::6PGL enzymes.
# (§2) Inactivation assays were performed with the compounds against GlG6PD::6PGL and TvG6PD::6PGL. Thus, all the compounds were activate immediately before the experiments as previously reported and diluted using dimethyl sulfoxide (DMSO) as a solvent. For the assay, 0.2 mg/mL of the enzyme was incubated with the compounds at a concentration of 400 µM at 37 °C for 2 h. Following incubation, the activity was measured with a standard reaction mixture. Only the compounds that reduced the activity of the enzyme by more than 50% were used in the subsequent experiments.
# (§3) Then, aliquots from these incubations were withdrawn, and the residual activity was determined under standard conditions. The results are reported as the percentage of residual activity (using the activity of each enzyme incubated without any compound as 100% activity) versus the compound’s concentration.
# (§4) The second-order rate constants of inactivation for each one of the compounds were calculated by obtaining the pseudo-first-order rate constant (k1) values. Pseudo-first-order inactivation rate constants (k1) were obtained at four or five fixed concentrations for each of the compounds. At the indicated times, aliquots were withdrawn to determine residual activity. Then, residual activity data were fitted using the monoexponential decay equation, as previously reported. The previously obtained k1 values were replotted against the concentrations of each compound, and the slope created by these plots corresponds to the second-order inactivation constant k2 (M^−1·s^−1).
# TvG6PD::6PGL [3] = target: T1, TvG6PD::6PGL; assay: TvG6PD::6PGL enzyme inactivation assay; type: biochemical, T. vaginalis; details: for inhibition at 400 µM: read-out: Inhibition (%) at 400 µM of TvG6PD::6PGL, 400 µM compound, 0.2 mg/mL enzyme, 37 °C, 2 h, relative to enzyme without inhibitor; for kinact/KI: read-out: second-order inactivation rate constant k2, TvG6PD::6PGL, slope of k1 versus compound concentration
# Description: as §1, §2, §3, §4
# TvG6PD::6PGL [4] = target: T1, TvG6PD::6PGL; assay: Intrinsic fluorescence of TvG6PD::6PGL with compounds; design: species or system T. vaginalis; details: compound at IC50 concentration, 2 h, 37 °C; native protein 673 a.u.
# Description: (§5) The effect of the compounds on the tertiary structure (3D) of the GlG6PD::6PGL and TvG6PD::6PGL proteins was evaluated by monitoring the changes in the intrinsic and extrinsic fluorescence using a Perkin-Elmer LS-55 spectrofluorometer (Perkin-Elmer, Wellesley, MA, USA). […] Following incubation, the proteins were excited at 280 nm, and we recorded the emission spectra from 310 to 500 nm with a scan speed of 150 nm/min using excitation and emission slits of 4 and 8 nm, respectively. The spectra of the blanks (buffer phosphate containing each of the compounds) were subtracted from all the obtained spectra that contained the protein, and the spectrum of the enzyme without the compound was used as control. The final spectrum for each compound was the average of five scans.
# GlTIM = test system: GlTIM; design: method as in PMID 32882836; details: cited from earlier work; for IC50: read-out: IC50 TIM enzyme from G. lamblia
# [5] = test system: T. vaginalis trophozoites; assay: Anti-T. vaginalis assay (trophozoite viability, trypan blue); type: cell-based; details: for reduction of T. vaginalis trophozoite viability at 6 µM / reduction of T. vaginalis trophozoite viability at 100 μM / IC50: 24 h; for reduction of T. vaginalis trophozoite viability at 100 μM: relative to negative control; for selectivity index (SI), T. vaginalis: Caco-2 CC50 relative to T. vaginalis IC50; for IC50: Trichomonas vaginalis, trophozoites, 37 °C
# Description: The isolate T. vaginalis, Donne ATCC 30236 was axenically grown in trypticase–yeast extract–maltose (TYM) medium (pH 6.0), supplemented with 10% sterile horse serum (previously inactivated at 56 °C for 30 min), and incubated at 37 °C under microaerobic conditions. The trophozoites were axenically maintained, and a trypan blue (0.4%) exclusion assay was performed to ensure that the minimum viability of 95% and logarithmic growth phase were achieved before proceeding to the antiparasitic assay.
# Drug susceptibility assays were performed to analyze the trichomonacidal potential of O2N-BZM7 and O2N-BZM9 compounds against T. vaginalis, as previously described. The compounds were diluted in dimethylsulfoxide (DMSO) as a vehicle for solubilization. […] Trophozoites were adjusted to an initial density of 2.6 × 10^5 trophozoites/mL of TYM medium. Then, 1.5 mL tubes were seeded with […] of T. vaginalis trophozoites/tubes (2.6 × 10^5 trophozoites/mL), O2N-BZM7 and O2N-BZM9 were added, and tubes were incubated at 37 °C with 5% CO2 for 24 h. After incubation, trophozoites were counted with trypan blue (0.4%) (1:1, v/v) on a Neubauer chamber to determine the trophozoites’ motility, morphology, and viability. Three controls were used in each assay: a negative control containing only trophozoites, a 0.06% DMSO control, and a positive control containing MTZ at 100 μM (Sigma-Aldrich, St. Louis, MO, USA). The IC50 was calculated using the GraphPad Prism 8.0 software Inc. version 8.0.2 (263) (San Diego, CA, USA).
# G. lamblia [6] = test system: G. lamblia; design: method as in PMID 32882836; details: previous study; cited from earlier work
# G. lamblia [7] = assay: In vitro antigiardial activity; type: cell-based; details: for selectivity index (SI), G. lamblia: Caco-2 CC50 relative to G. lamblia IC50
# GlG6PD::6PGL [8] = target: T2, GlG6PD::6PGL; assay: Circular dichroism of GlG6PD::6PGL with compounds; design: species or system G. lamblia; details: compound at IC50 concentration, 2 h, 37 °C, protein 0.5 mg/mL
# Description: One control containing only enzyme was used in each assay. Then, the proteins were loaded in a quartz cell with a 0.1 cm path length, and spectral scans were recorded at 25 °C in ultraviolet circular dichroism (UV-CD) ranging from 200 to 260 nm. The spectra of the blanks (buffer P solution containing each of the compounds) were subtracted from all the obtained spectra that contained the protein. All the CD data were reported as molar ellipticity. The experiments were performed in triplicate.
# GlG6PD::6PGL [9] = target: T2, GlG6PD::6PGL; assay: Intrinsic fluorescence of GlG6PD::6PGL with compounds; design: species or system G. lamblia; details: compound at IC50 concentration, 2 h, 37 °C; for maximum intrinsic fluorescence intensity of GlG6PD::6PGL: control 874 a.u.
# Description: as §5
# Caco-2 cells = details: read-out: Caco-2 CC50, metronidazole; cited from earlier work
# T2 sequence (A8BWM5 entry or part of it): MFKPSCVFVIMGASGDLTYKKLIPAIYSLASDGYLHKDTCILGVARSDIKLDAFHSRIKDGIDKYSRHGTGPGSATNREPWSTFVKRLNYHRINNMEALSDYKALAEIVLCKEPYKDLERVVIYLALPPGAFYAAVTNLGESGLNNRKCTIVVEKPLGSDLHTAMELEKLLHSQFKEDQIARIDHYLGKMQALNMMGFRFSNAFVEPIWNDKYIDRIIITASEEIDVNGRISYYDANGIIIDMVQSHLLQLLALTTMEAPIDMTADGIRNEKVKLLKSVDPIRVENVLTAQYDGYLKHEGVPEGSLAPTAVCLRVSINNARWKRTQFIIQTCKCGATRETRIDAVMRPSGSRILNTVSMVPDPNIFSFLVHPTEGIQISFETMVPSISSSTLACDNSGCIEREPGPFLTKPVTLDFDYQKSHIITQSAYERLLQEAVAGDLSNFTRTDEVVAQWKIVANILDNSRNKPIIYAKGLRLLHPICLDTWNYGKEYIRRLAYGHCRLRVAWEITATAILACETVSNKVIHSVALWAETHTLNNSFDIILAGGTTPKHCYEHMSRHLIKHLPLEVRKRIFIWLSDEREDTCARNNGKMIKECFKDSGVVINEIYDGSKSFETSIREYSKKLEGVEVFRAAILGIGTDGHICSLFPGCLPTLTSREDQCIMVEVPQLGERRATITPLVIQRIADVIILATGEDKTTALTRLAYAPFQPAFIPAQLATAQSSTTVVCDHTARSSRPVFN
# T1 sequence (A2DBT5 entry or part of it): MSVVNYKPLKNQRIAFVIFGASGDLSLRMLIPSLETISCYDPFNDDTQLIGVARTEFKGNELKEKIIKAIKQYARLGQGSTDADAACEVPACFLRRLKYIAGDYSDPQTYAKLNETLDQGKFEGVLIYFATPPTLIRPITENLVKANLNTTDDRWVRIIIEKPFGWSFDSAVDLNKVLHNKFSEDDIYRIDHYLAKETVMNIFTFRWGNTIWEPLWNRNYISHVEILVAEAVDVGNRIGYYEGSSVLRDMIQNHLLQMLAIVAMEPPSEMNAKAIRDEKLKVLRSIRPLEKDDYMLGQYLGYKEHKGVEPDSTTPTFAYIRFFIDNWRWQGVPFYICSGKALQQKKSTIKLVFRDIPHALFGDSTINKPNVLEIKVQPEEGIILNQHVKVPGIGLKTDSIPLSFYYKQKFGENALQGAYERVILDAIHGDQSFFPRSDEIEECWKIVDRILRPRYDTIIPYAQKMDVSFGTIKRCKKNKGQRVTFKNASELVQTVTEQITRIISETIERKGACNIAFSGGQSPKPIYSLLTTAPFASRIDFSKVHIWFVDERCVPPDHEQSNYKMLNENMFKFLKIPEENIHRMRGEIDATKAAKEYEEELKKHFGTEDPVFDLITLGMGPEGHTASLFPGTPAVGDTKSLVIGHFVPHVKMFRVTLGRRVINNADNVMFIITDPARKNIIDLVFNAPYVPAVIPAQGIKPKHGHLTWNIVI
SMILES,Inhibition (%) at 400 µM of GlG6PD::6PGL (GlG6PD::6PGL [2]),inhibition at 400 µM (GlG6PD::6PGL [2]),inhibition at 400 µM (TvG6PD::6PGL [3]),kinact/KI (GlG6PD::6PGL [2]),IC50 (GlTIM),"selectivity index (SI), T. vaginalis [5]",IC50 [5],"selectivity index (SI), G. lamblia (G. lamblia [7])",other results
O=C(Nc1ccc(Cl)cc1)Nc1ncc([N+](=O)[O-])s1 [CNZ-3],–,–,–,–,–,–,–,–,"k2 for TvG6PD::6PGL protein, in-house library compounds (TvG6PD::6PGL [1]): 0.66 M⁻¹ s⁻¹"
"Cc1c(OCC(F)(F)F)ccnc1C[S+]([O-])c1nc2ccc(N)cc2[nH]1 (stereo not shown) [Compound H2N-BZM6, 2-{[3-methyl-4-(2,2,2-trifluoroethoxy)pyridin-2-yl]methanesulfinyl}-1H-benzimidazol-6-amine]",complete activity of the GlG6PD::6PGL enzyme was eradicated,100 ± 5%,12 ± 5%,–,–,–,–,–,–
"O=[N+]([O-])c1ccc2nc([S+]([O-])Cc3ccccn3)[nH]c2c1 (stereo not shown) [Compound O2N-BZM7, 6-nitro-2-[(pyridin-2-yl)methanesulfinyl]-1H-benzimidazole]",complete activity of the GlG6PD::6PGL enzyme was eradicated,100 ± 5%,–,1.9 M⁻¹ s⁻¹,12 µM,106,6 µM,45,maximal intrinsic fluorescence intensity of TvG6PD::6PGL (TvG6PD::6PGL [4]): 415 a.u.; kinact/KI (TvG6PD::6PGL [3]): 0.85 M⁻¹ s⁻¹; k2 for inactivation of GlTIM enzyme (GlTIM): 3.2 M⁻¹ s⁻¹; reduction of T. vaginalis trophozoite viability at 6 µM [5]: 52%; reduction of T. vaginalis trophozoite viability at 100 μM [5]: 100%; IC50 (G. lamblia [6]): 14 µM; change of secondary structure (CD spectra) of GlG6PD::6PGL (GlG6PD::6PGL [8]): did not induce alterations of the secondary structure; reduction of intrinsic fluorescence of GlG6PD::6PGL compared to control (GlG6PD::6PGL [9]): 62%; maximum intrinsic fluorescence intensity of GlG6PD::6PGL (GlG6PD::6PGL [9]): 329 a.u.
"Cc1c(OCC(F)(F)F)ccnc1C[S+]([O-])c1nc2ccc([N+](=O)[O-])cc2[nH]1 (stereo not shown) [Compound O2N-BZM9, 2-{[3-methyl-4-(2,2,2-trifluoroethoxy)pyridin-2-yl]methanesulfinyl}-6-nitro-1H-benzimidazole]",complete activity of the GlG6PD::6PGL enzyme was eradicated,100 ± 5%,> 70%,6.1 M⁻¹ s⁻¹,20 µM,160,4 µM,39,IC50 (GlG6PD::6PGL [2]): 15 µM; maximal intrinsic fluorescence intensity of TvG6PD::6PGL (TvG6PD::6PGL [4]): 102 a.u.; kinact/KI (TvG6PD::6PGL [3]): 1.62 M⁻¹ s⁻¹; k2 for inactivation of GlTIM enzyme (GlTIM): 2.8 M⁻¹ s⁻¹; reduction of T. vaginalis trophozoite viability at 6 µM [5]: 52%; reduction of T. vaginalis trophozoite viability at 100 μM [5]: 100%; IC50 (G. lamblia [6]): 17 µM; change of secondary structure (CD spectra) of GlG6PD::6PGL (GlG6PD::6PGL [8]): did not induce alterations of the secondary structure; reduction of intrinsic fluorescence of GlG6PD::6PGL compared to control (GlG6PD::6PGL [9]): 62%; maximum intrinsic fluorescence intensity of GlG6PD::6PGL (GlG6PD::6PGL [9]): 329 a.u.
"[O-][S+](Cc1ccccn1)c1nc2ccccc2[nH]1 (stereo not shown) [H-BZM1, 2-[(pyridin-2-yl)methanesulfinyl]-1H-benzimidazole]",–,62 ± 5%,7 ± 5%,–,–,–,–,–,–
"COc1c(C)cnc(C[S+]([O-])c2nc3ccccc3[nH]2)c1C (stereo not shown) [H-BZM2, 2-[(4-methoxy-3,5-dimethylpyridin-2-yl)methanesulfinyl]-1H-benzimidazole]",complete activity of the GlG6PD::6PGL enzyme was eradicated,100 ± 5%,47 ± 5%,3.3 M⁻¹ s⁻¹,37 µM,–,–,–,IC50 (GlG6PD::6PGL [2]): 24 µM
O=C(COc1ccc(/C=C2\SC(=O)NC2=O)cc1)NC1CCN(Cc2ccccc2)CC1 [MCC-7],–,–,–,–,–,–,–,–,"k2 for TvG6PD::6PGL protein, in-house library compounds (TvG6PD::6PGL [1]): 0.26 M⁻¹ s⁻¹"
"Cc1ncc([N+](=O)[O-])n1CCO [Metronidazole, reference compound]",–,–,–,–,–,1.6,12 µM,3.9,"CC50 (Caco-2 cells): 19 µM; IC50 (G. lamblia [7]; Giardia duodenalis, no reference given, read-out: G. lamblia IC50, metronidazole positive control): 4.8 µM"
